These results are taken from patent US8314092B2, “Substituted [(5H-pyrrolo[2,1-c][1,4]benzodiazepin-11-yl)piperazin-1-yl]-2,2-dimethylpropanoic acid compounds as dual activity H1 inverse agonists/5-HT2A antagonists” (Eli Lilly and Company, priority 2011, dated 2012).

Where a name gives a salt, the structure may show the parent alone. Some results are limits rather than exact numbers.

The target in test [1] is Dopamine D3 (Homo sapiens, UniProt P35462). As to the kind of experiment: Dopamine D3 binding. From the text: (§1) Further, the compounds of the invention may be tested in binding assays and functional activity assays by well known methods for other physiologically important receptors such as, but not limited to, the hERG channel, other serotonin receptors (specifically 5-HT1A, 5-HT1B, 5-HT1D, 5-HT1E, 5-HT1F receptors, lack of agonist activity at 5-HT2B receptors, 5-HT2C, 5-HT4, 5-HTS, 5-HT6, and 5-HT7 receptors), muscarinic receptors, dopaminergic receptors (specifically D1, D2, and D3), GABAA receptors, adrenergic receptors and monoamine transporters. Certain exemplified compounds are tested at these receptors and are shown to lack significant activity.

Test [2] has as its system native GABAA receptors. The experiment in a line: GABAA antagonism using native receptors in primary neuronal cultures (FLIPR calcium flux). It counts as cell-based, rat. The settings on record: against 10 μM GABA. The procedure:
Activity of compounds on native GABAA receptors is evaluated by monitoring calcium fluxes using a 96 well format FLIPR® system (Fluorometric Imaging Plate Reader (FLIPR®, Molecular Devices). Briefly, cortical embryonic neurons are dissociated from E18 rat embryos and plated at optimum density into black-walled, transparent bottom poly-D-lysine coated 96-well FLIPR® plates. After loading the cells with a calcium sensitive dye (Fluo-4-AM, Molecular Devices), the cells are bathed in a solution containing low chloride (chloride replaced by gluconate). Under these conditions activation of GABAA receptors causes an efflux of chloride ions (in the direction of the chemical gradient), which results in membrane depolarization and consequently activation of voltage gated calcium channels (VGCCs). Calcium influx through VGCCs is recorded and analysed offline using the FLIPR® system. For a pharmacological validation of the assay, concentration response curves (CRC) are recorded for the standard agonist (GABA) and standard antagonist (Gabazine). […]
The antagonist effects of compounds are quantified using 10-point dose response curves by comparing the peak fluorescent responses to the agonist GABA in the presence and absence of compound. […] Antagonist effects are calculated as a percent of the assay window. […]

In test [3] the target is 5-HT2B receptors (Homo sapiens, UniProt P41595). As to the kind of experiment: 5-HT2B agonist functional activity assay. The class given is cell-based.
Source text: as §1

For test [4], the target named is 5-HT1E (Homo sapiens, UniProt P28566). The experiment in a line: 5-HT1E binding.
Source text: as §1

Sequence of Dopamine D3 (P35462 whole entry): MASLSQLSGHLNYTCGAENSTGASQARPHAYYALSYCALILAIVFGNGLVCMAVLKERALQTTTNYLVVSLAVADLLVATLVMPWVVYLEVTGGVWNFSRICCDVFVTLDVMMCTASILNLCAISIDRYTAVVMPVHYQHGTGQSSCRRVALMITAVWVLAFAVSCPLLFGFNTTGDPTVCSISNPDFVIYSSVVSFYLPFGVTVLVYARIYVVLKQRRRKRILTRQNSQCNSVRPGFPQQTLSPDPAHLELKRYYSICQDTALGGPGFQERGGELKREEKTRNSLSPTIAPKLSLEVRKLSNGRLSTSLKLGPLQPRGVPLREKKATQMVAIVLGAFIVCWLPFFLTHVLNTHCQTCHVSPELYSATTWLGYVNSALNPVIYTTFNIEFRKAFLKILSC
Sequence of 5-HT2B receptors (P41595 whole entry): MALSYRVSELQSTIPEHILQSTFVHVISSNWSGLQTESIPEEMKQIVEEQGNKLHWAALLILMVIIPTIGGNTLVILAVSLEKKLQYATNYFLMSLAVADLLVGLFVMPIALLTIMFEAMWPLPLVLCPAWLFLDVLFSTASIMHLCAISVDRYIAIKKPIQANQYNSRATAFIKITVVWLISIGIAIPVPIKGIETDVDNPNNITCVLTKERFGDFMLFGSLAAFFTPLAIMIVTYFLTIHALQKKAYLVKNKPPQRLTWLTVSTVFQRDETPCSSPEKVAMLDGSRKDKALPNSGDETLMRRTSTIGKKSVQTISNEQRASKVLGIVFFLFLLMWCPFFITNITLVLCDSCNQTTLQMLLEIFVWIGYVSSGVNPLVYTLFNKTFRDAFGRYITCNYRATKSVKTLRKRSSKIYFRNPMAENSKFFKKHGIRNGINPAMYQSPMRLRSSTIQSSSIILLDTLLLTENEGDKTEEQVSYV
Sequence of 5-HT1E (P28566 whole entry, species assumed): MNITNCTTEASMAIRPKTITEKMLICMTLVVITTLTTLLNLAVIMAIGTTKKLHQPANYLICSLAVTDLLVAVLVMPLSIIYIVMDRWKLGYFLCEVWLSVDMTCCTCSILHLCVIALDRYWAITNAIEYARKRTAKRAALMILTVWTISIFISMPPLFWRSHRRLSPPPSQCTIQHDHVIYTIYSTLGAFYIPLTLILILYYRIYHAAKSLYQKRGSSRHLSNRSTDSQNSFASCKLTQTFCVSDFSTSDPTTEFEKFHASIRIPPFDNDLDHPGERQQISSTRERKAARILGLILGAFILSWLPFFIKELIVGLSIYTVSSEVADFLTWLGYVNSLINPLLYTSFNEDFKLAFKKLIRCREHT

As to `Cc1cc2n(c1)Cc1cc(Cl)ccc1N=C2N1CCN(CC(C)(C)C(=O)O)CC1` [Example 13, 3-[4-(7-Chloro-2-methyl-5H-pyrrolo[2,1-c][1,4]benzodiazepin-11-yl)piperazin-1-yl]-2,2-dimethylpropanoic acid dihydrochloride], the inhibition constant (Ki) (commonly a dissociation constant, usually derived from enzyme kinetics or from competition with a known ligand) in test [1] is greater than 4.11 µM; in test [4], greater than 5.37 µM. Further, the IC50 – broadly, the concentration that inhibits the measured activity by half – in test [2] was greater than 50 µM. Moreover, in test [3], the EC50 (as a rule, the concentration that produces a half-maximal response) was greater than 10 µM.
